Experimental data as given in US20110207660A1, “PHARMACEUTICAL FORMULATIONS OF AN HCV PROTEASE INHIBITOR IN A SOLID MOLECULAR DISPERSION” (Schering Corporation, priority 2008, published 2011).

Key:
[1] = Clinical Study 2: once-a-day 300 mg Compound I with 100 mg ritonavir for 10 days, healthy human subjects, fed; conditions: in vivo, steady state, Day 10, formulation G tablets 3×100 mg QD + 100 mg ritonavir QD, 8 healthy human subjects, read-out: Cmin Range
Protocol: The pharmacokinetic profile of Compound I following once-a-day oral administration of 300 mg Compound I in a formulation of the present invention in tablet form (specifically exemplary formulation G described in Table 3A, 3×100 mg, QD) in combination with 100 mg ritonavir (RTV, 1×100 mg, QD) for 10-days to healthy human subjects under fed conditions (i.e., following a standard meal) was determined. […] Blood was collected from each subject pre-dose (on Days 7, 8, and 9), as well as 0.5, 1, 1.5, 2, 3, 4, 5, 6, 7, 8, 10, 12, 16, and 24 hr post-dose (on Day 10) for determining the concentration of Compound I in the plasma and to calculate the pharmacokinetic parameters for each formulation.

[2] = in vitro IC90 of Compound I; conditions: reference line in FIGS. 5A and 5B
[3] = Biopharmaceutics Classification System class; format: physicochemical; conditions: low solubility and low permeability

With CCCC[C@H](NC(=O)[C@@H]1[C@@H]2[C@H](CN1C(=O)[C@@H](NC(=O)NC1(CS(=O)(=O)C(C)(C)C)CCCCC1)C(C)(C)C)C2(C)C)C(=O)C(=O)NC1CC1 [Compound I] the concentration at 10 days [1] was 167 to 426 ng/mL, the “in vitro IC90” value [2] was 0.028 µg/mL and the “Biopharmaceutics Classification System class” value [3] was “Class IV”.
